Columns and labels:
rat cardiac muscle = experiment: Force and [Ca2+]i measurements in cardiac trabeculae; format: cell-based; conditions: control compounds (NCA hydrolysis products, non-HNO-releasing analogue); data not shown
Method: Force and [Ca^2+]i Measurements in Cardiac Trabeculae.
Rat hearts were exposed via midsternotomy after the animals were anesthetized with intraperitoneal injection of pentobarbital (100 mg/kg), and were then rapidly excised and aorta cannulated. The hearts were perfused retrogradely (˜15 ml/min) with high K^+ Krebs-Henseleit (H-K) solution equilibrated with 95% O2 and 5% CO2. Trabeculae were quickly dissected from the right ventricles of the hearts and mounted between a force transducer and a motor arm. The muscles were superfused with K-H solution at a rate of ˜10 ml/min and stimulated at 0.5 Hz. Force was measured using a force transducer system (SI, Germany) and expressed in mN/mm^2. Sarcomere length was measured by laser diffraction. Fura-2 potassium salt was microinjected iontophoretically into one cell and allowed to spread throughout the whole muscle (via gap junctions). The epifluorescence of fura-2 was measured by exciting at 380 and 340 nm. The fluorescent light was collected at 510 nm by a photomultiplier tube (R1527, Hamamatsu). [Ca^2+]i was given by (after subtraction of the autofluorescence): [Ca^2+]i=K′d(R-Rmin)/(Rmax-R), where R is the observed ratio of fluorescence (340/380), K′d is the apparent dissociation constant, Rmax is the ratio of 340 nm/380 nm at saturating [Ca^2+], and Rmin is the ratio of 340 nm/380 nm at zero [Ca^2+]. The values of K′d, Rmax, and Rmin were determined by in vivo calibrations. Tetanization of the trabecula was achieved by addition of ryanodine (1.0 μmol/L) and by increasing the stimulus rate to 10 Hz briefly (˜3 sec) to obtain steady-state force-[Ca^2+] relations. Different levels of tetanized force will be obtained by increasing [Ca^2+] in the perfusate (up to 20-25 mmol/L). The data will be fitted with the Hill equation: F=Fmax[Ca^2+]in/(K1/2n+[Ca^2+]in), where Fmax is the maximal force. K1/2 is [Ca^2+]i at half Fmax, and n is the Hill coefficient.
1-nitrosocyclohexylacetate (NCA) is a new and mechanistically unique HNO donor that has been recently synthesized.

skinned trabeculae = experiment: Force-[Ca2+] relation in skinned trabeculae; format: cell-based, rat; conditions: skinned muscles; DTT (5 mM) for 10 min after NCA
Method: FIG. 2. […] (A) Steady-state force-[Ca^2+]i relationship in intact trabeculae before and after NCA (20 μmol/L). n=5. See text for details. (B) Force-[Ca^2+] relation in skinned trabeculae before and after NCA (n=6). […] The muscles were treated with DTT (5 mM) for 10 min after 1st force-[Ca^2+] was obtained in the presence of NCA alone, and a second force-[Ca^2+] relation was obtained in the presence of NCA+DTT. n=3. (D) For comparison, steady-state force-[Ca^2+]i relationship in intact trabeculae before and after AS (500 μmol/L). n=5.
To further test this hypothesis, steady-state force-[Ca^2+]i relations were obtained by tetanizing the muscles in the presence of ryanodine.

| Structure (SMILES) | effects in cardiac muscles (rat cardiac muscle) | increases in myofilament Ca2+ sensitivity caused by HNO (skinned trabeculae) |
| --- | --- | --- |
| CC(C)(C)C(=O)OC1(N=O)CCCCC1 [1-nitrosocyclohexyl pivalate] | had no effects | – |
| O[C@@H](CS)[C@@H](O)CS [DTT] | – | completely abolished |
| O=C1CCCCC1 [cyclohexanone] | did not produce any appreciable effects | – |

Source: US20120231482A1, “METHOD, KIT OR DIAGNOSTIC FOR THE DETECTION OF REAGENTS WHICH INDUCE ALTERED CONTRACTILITY” (THE JOHNS HOPKINS UNIVERSITY, priority 2009, published 2012)
